Data from patent US20250089707A1, “ECO-FRIENDLY QUARANTINE COMPOSITION HAVING FUNCTION OF KILLING PHOSPHOLIPID ENVELOPED VIRUS” (priority 2022, published 2025).

Key:
[1] = test system: Pseudomonas aeruginosa; test: Antibacterial activity, paper disc method
[2] = test system: Staphylococcus epidermidis; test: Antibacterial activity, paper disc method
[3] = test system: human epithelial keratinocyte cells (HaCaT); test: Cytotoxicity, MTT, HaCaT; conditions: 24 hours treatment
[4] = test system: Bacillus subtilis; test: Antibacterial activity, paper disc method
[5] = test system: human bronchial epithelial cells (BEAS-2B); test: Cytotoxicity, MTT, BEAS-2B; conditions: 24 hours treatment
[6] = test system: Escherichia coli; test: Antibacterial activity, paper disc method
[7] = test system: human monocyte cells (THP-1); test: Cytotoxicity, MTT, THP-1; conditions: THP-1, 24 hours treatment
[8] = test system: Streptococcus mutans; test: Antibacterial activity, paper disc method
[9] = test system: Salmonella typhimurium; test: Antibacterial activity, paper disc method
[10] = test system: Staphylococcus aureus; test: Antibacterial activity, paper disc method

SMILES: CCCCCCCCCCCCCCCCCC(=O)[O-].[Na+] [Example P-3, Sodium stearate]
- MIC [1]: ≥100 μg/50 μl
- MIC [2]: ≥100 μg/50 μl
- IC50 value (%) [3]: 0.005292%
- MIC [4]: ≥100 μg/50 μl
- IC50 value (%) [5]: 0.00969%
- MIC [6]: ≥100 μg/50 μl
- IC50 value (%) [7]: 0.4165%
- MIC [8]: ≥100 μg/50 μl
- MIC [9]: ≥100 μg/50 μl
- MIC [10]: ≥100 μg/50 μl
